# Source: patent US11395488B2, “Use of compositions comprising pelargonic acid and specific non ionic surfactants for inhibiting the growth of suckers on plants” (BELCHIM CROP PROTECTION NV, priority 2016, dated 2022)
# Columns and labels:
# [1] = test system: suckers on tobacco plant; assay: Use of pelargonic acid for inhibiting the growth of suckers (Example 1, FIG. 1); assay type: in vivo, tobacco plant of the Burley variety; conditions: Burley tobacco; pelargonic acid applied at 0.5 g/l to 50.0 g/l; FIG. 1B
# From the text: To better exemplify reference is made to FIGS. 1A and 1B, which show a tobacco plant (100) of the Burley variety. […] It can be observed that at full floral development (i.e. ˜3 to 4 months) suckers (150) started to proliferate and grew into auxiliary stems.
# [2] = test system: suckers on tobacco plants; assay: Treatment of tobacco plants with pelargonic acid: sucker growth inhibition (Example 3); assay type: in vivo, tobacco plants of the Burley and Virginia; conditions: PA 3.4, 5.1, 6.8 g/l; V 450-460 l/ha; interval of 7 days between treatments; across all plants
# Experimental: (§1) In an experimental embodiment tobacco plants of the Burley and Virginia were treated with a Volume (V) of 450-460l/ha with a composition comprising pelargonic acid (PA) at different concentrations (e.g., 3.4 g/l, 5.1 g/l and 6.8 g/l) with an interval of 7 days between treatments; the exact experimental details can be found in Table 1.
# [3] = test system: tobacco plants; assay: Treatment of tobacco plants with pelargonic acid: phytotoxicity (Example 3); assay type: in vivo, tobacco plants of the Burley and Virginia; conditions: PA 3.4, 5.1, 6.8 g/l; V 450-460 l/ha; interval of 7 days between treatments
# Experimental: as §1
structure (smiles),measurement,setting,value
CCCCCCCCC(=O)O [pelargonic acid],sucker growth,[1],fully inhibited
same,sucker growth inhibition,[2],> 90%
same,phytotoxicity or adverse ecological effects,[3],no phytotoxicity or adverse ecological effects were observed
